In patent publication US20040191239A1, “Treatment and prevention of reactive oxygen metabolite-mediated cellular damage” (priority 1999, published 2004):

Columns and labels:
ROMs = settings: predictive example; about 10 μg/kg/day subcutaneous as in Example 3
Procedure: Histamine, a H2-receptor agonist, at approximately 10 μg/kg/day, in a pharmaceutically acceptable form is introduced by subcutaneous injection into a subject experiencing or about to experience MI. The above procedure is repeated daily for 7 days.
Histamine is administered to a patient presenting subendocardial myocardial infarction, as described in Example 3.

[1] = Histamine administration time: efficacy and side effects; settings: administered over longer than about 30 minutes
NADPH oxidase = NADPH oxidase (Homo sapiens, UniProt P04839); settings: substrate of the membrane-bound oxidase; cited from earlier work
[2] = system: brain tissue and cerebral vessels; settings: cited from earlier work
[3] = cited from earlier work
HCV = settings: cited from earlier work

Compound: NCCc1c[nH]cn1 [Histamine, histamine]
- release or production of ROMs (ROMs): prevention of the release or production of ROMs
- efficacy [1]: decreased or lack of efficacy

Compound: NC(=O)C1=CN([C@@H]2O[C@H](COP(=O)(O)OP(=O)(O)OC[C@H]3O[C@@H](n4cnc5c(N)ncnc54)[C@H](O)[C@@H]3O)[C@@H](O)[C@H]2O)C=CC1 [NADH]
- Km (NADPH oxidase): 450 µM

Compound: NC(=O)C1=CN([C@@H]2O[C@H](COP(=O)(O)OP(=O)(O)OC[C@H]3O[C@@H](n4cnc5c(N)ncnc54)[C@H](OP(=O)(O)O)[C@@H]3O)[C@@H](O)[C@H]2O)C=CC1 [NADPH]
- Km (NADPH oxidase): 45 µM

Compound: C#CCN(C)[C@H](C)Cc1ccccc1 [selegiline, L-deprenyl]
- NO production ([2]; brain tissue and cerebral vessels): rapid increases in NO production
- protection of the vascular endothelium ([2]; toxic effects of amyloid-beta peptide): protected the vascular endothelium
- memory ([3]; 173 people, after six months): improved significantly
- effect on the benefits of tacrine (Cognex) ([3]; another study, combination with tacrine): enhanced the benefits of tacrine

Compound: alpha-interferon
- effectiveness in patients with HCV (HCV; chronic HCV infection): minimally effective
- patients experiencing flu-like symptoms (HCV; in vivo): 60-80%
- responding patients relapsing to a more progressive disease state (HCV; in vivo): approximately 70%
